What follows are molecules tested on MHC class I expression of T1 cell (human lymphoma line 174×CEM.) (assay: Effect on MHC class I expression of T1 cell (flow cytometry, MFI)). Conditions: 72 h, concentration inhibiting MHC class I molecule expression level by 20%, T1 cells, three days incubation, read-out: EC20.
Format: cell-based
Protocol: T1 cells (5.7×10^3 cells/200 μL/well) were incubated using a 96-well flat bottom microplate in RPMI1640 culture medium (Iwaki Glass Corporation) containing 10% bovine serum (hereinafter referred to as FBS; Iruvine Scientific) in the presence of a test compound of each concentration diluted from 400 μM by a common ratio of root 10 at 37° C. in an incubator containing 5% carbon dioxide concentration for three days. After incubation, cells were stained with fluoroisothiocyanate labeled mouse antihuman MHC class I monoclonal antibody (antibody produced by cell strain W6/32 (ATCC No, CRL1991). Mean fluorescence intensity (hereinafter referred to as MFI) of stained cells was measured with flow cytometry FACScan (BD), and this was assumed as MHC class I molecule expression level. Concentrations of the test compounds which inhibited the expression level of MHC class I molecule by 20% (EC20 value) were calculated from the following Expression (1), which are shown in Table 1. [formula]

Row | SMILES | IC20 [µM]
1 | CC(C)[C@H](N)C(=O)Nc1nc2nccc(-c3cccs3)n2n1 [Example 040] | 8.4
2 | COc1cccc(-c2ccnc3nc(NC(=O)OC(C)(C)C)nn23)c1 [Example 008] | 7.5
3 | COc1cccc(-c2ccnc3nc(NC(=O)CCS(=O)(=O)c4ccccc4)nn23)c1 [Example 054, 3-benzenesulfonyl-N-(7-(3-methoxyphenyl)-[1,2,4]triazolo[1,5-a]pyrimidin-2-yl)propionamide] | 4
4 | O=C(CC1CCCC1)Nc1nc2nccc(-c3cccs3)n2n1 [Example 016] | 9.7
5 | CC(C)(C)OC(=O)Nc1nc2nccc(-c3ccc([N+](=O)[O-])cc3)n2n1 [Example 009] | 7.2
6 | CNc1nc2nccc(-c3cccs3)n2n1 [Example 001, N-methyl-7-thiophene-[1,2,4]triazolo[1,5-a]pyrimidin-2-ylamine] | 6
7 | COc1ccc(-c2ccnc3nc(NC(=O)CCS(=O)(=O)c4ccccc4)nn23)cc1 [Example 056, 3-benzenesulfonyl-N-(7-(4-methoxyphenyl)-[1,2,4]triazolo[1,5-a]pyrimidin-2-yl)propionamide] | 0.74
8 | CC(=O)C1CC(CC(=O)Nc2nc3nccc(-c4cccs4)n3n2)C1(C)C (stereo not drawn) [Example 013] | 8.2
9 | O=C(Nc1nc2nccc(-c3cccs3)n2n1)C1C2CC3C(C2=O)C31 (stereo not drawn) [Example 026] | 8.8
10 | O=C(CCS(=O)(=O)c1ccccc1)Nc1nc2nccc(-c3ccccc3)n2n1 [Example 055] | 1.6
11 | CC(C)=CC(=O)Nc1nc2nccc(-c3cccs3)n2n1 [Example 015] | 9.2
12 | CC(C)(C)OC(=O)NC(CSCc1ccccc1)C(=O)Nc1nc2nccc(-c3cccs3)n2n1 (stereo not drawn) [Example 036] | 7.1
13 | COc1ccc(-c2ccnc3nc(NC(C)=O)nn23)cc1 [Example 052] | 6.8
14 | O=C(CCS(=O)(=O)c1ccccc1)Nc1nc2nccc(-c3cccs3)n2n1 [Example 022, 3-benzenesulfonyl-N-(7-thiophene[1,2,4]triazolo[1,5-a]pyrimidin-2-yl)propionamide] | 8.2
15 | O=C(/C=C\Sc1ccccc1)Nc1nc2nccc(-c3cccs3)n2n1 [Example 020] | 5.3
16 | CCC(NC(=O)OC(C)(C)C)C(=O)Nc1nc2nccc(-c3cccs3)n2n1 [Example 047, (S)-(1-(7-thiophen-2-yl-triazolo[1,5-a]-pyrimidin-2-ylcarbamoyl)propyl)carbamic acid tert-butyl ester] | 7.3
17 | CC(C)(C)OC(=O)Nc1nc2nccc(-c3ccccc3)n2n1 [Example 007] | 6.25
18 | CC1(C)CC(=O)C=C(C(=O)Nc2nc3nccc(-c4cccs4)n3n2)O1 [Example 028, 6,6-dimethyl-4-oxo-5,6-dihydro-4H-pyran-2-carboxylic acid N-(7-thiophen-2-yl-[1,2,4]triazolo[1,5-a]pyrimidin-2-yl)amide] | 7.7

Source: US20070129383A1, “Substituted 2-amino-[1,2,4]triazolo[1,5-a]pyrimidine derivative and use thereof” (priority 2003, published 2007)
